Holding throughout (format): functional
The test system of assay [1] is Bordetella pertussis. The assay can be described thus: Antibacterial activity against […] Bordetella pertussis BP117 by Etest method.
The test system of assay [2] is Bordetella pertussis. Nature of the assay: Antibacterial activity against quinolone-susceptible Bordetella pertussis BP101 by Etest method.
Assay [3] relates to Bordetella pertussis. The assay can be described thus: Antibacterial activity against quinolone-susceptible Bordetella pertussis BP112 by Etest method.
Assay [4] deals with Bordetella pertussis. Nature of the assay: Antibacterial activity against quinolone-susceptible Bordetella pertussis BP115 by Etest method.
Assay [5] has as its system Bordetella pertussis. Nature of the assay: Antibacterial activity against […] Bordetella pertussis BP99 by Etest method.
The test system of assay [6] is Bordetella pertussis. The assay can be described thus: Antibacterial activity against […] Bordetella pertussis BP121 by Etest method.
The subject of assay [7] is Bordetella pertussis. The assay can be described thus: Antibacterial activity against quinolone-susceptible Bordetella pertussis BP111 by Etest method.
Assay [8] has as its system Bordetella pertussis. The assay can be described thus: Antibacterial activity against […] Bordetella pertussis BP122 by Etest method.
The subject of assay [9] is Bordetella pertussis. The assay can be described thus: Antibacterial activity against […] Bordetella pertussis BP118 by Etest method.
Assay [10] relates to Bordetella pertussis. The assay can be described thus: Antibacterial activity against quinolone-susceptible Bordetella pertussis BP109 by Etest method.
For assay [11], the system named is Bordetella pertussis. Nature of the assay: Antibacterial activity against quinolone-susceptible Bordetella pertussis BP113 by Etest method.
The test system of assay [12] is Bordetella pertussis. The assay can be described thus: Antibacterial activity against quinolone-susceptible Bordetella pertussis BP106 by Etest method.
The test system of assay [13] is Bordetella pertussis. The assay can be described thus: Antibacterial activity against quinolone-susceptible Bordetella pertussis CCUG 30837 by Etest method.
In assay [14] the test system is Bordetella pertussis. The assay can be described thus: Antibacterial activity against quinolone-susceptible Bordetella pertussis BP128 by Etest method.
Assay [15] relates to Bordetella pertussis. Nature of the assay: Antibacterial activity against […] Bordetella pertussis BP58 by Etest method.
For assay [16], the system named is Bordetella pertussis. The assay can be described thus: Antibacterial activity against […] Bordetella pertussis BP117 by Etest method in presence of efflux pump inhibitor phenyl-arginine-beta-naphthylamide.
In assay [17] the test system is Bordetella pertussis. The assay can be described thus: Antibacterial activity against quinolone-susceptible Bordetella pertussis BP113 by Etest method in presence of efflux pump inhibitor phenyl-arginine-beta-naphthylamide.
Assay [18] has as its system Bordetella pertussis. Nature of the assay: Antibacterial activity against […] Bordetella pertussis BP121 by Etest method in presence of efflux pump inhibitor phenyl-arginine-beta-naphthylamide.
For assay [19], the system named is Bordetella pertussis. Nature of the assay: Antibacterial activity against […] Bordetella pertussis BP99 by Etest method in presence of efflux pump inhibitor phenyl-arginine-beta-naphthylamide.
For assay [20], the system named is Bordetella pertussis. Nature of the assay: Antibacterial activity against […] Bordetella pertussis BP58 by Etest method in presence of efflux pump inhibitor phenyl-arginine-beta-naphthylamide.
In assay [21] the test system is Bordetella pertussis. The assay can be described thus: Antibacterial activity against quinolone-susceptible Bordetella pertussis CCUG 30837 by Etest method in presence of efflux pump inhibitor phenyl-arginine-beta-naphthylamide.
Assay [22] relates to Bordetella pertussis. The assay can be described thus: Antibacterial activity against […] Bordetella pertussis BP118 by Etest method in presence of efflux pump inhibitor phenyl-arginine-beta-naphthylamide.
The test system of assay [23] is Bordetella pertussis. The assay can be described thus: Antibacterial activity against […] Bordetella pertussis BP122 by Etest method in presence of efflux pump inhibitor phenyl-arginine-beta-naphthylamide.

Our source for the MIC values is ChEMBL document CHEMBL1649508, “Emergence of quinolone-resistant Bordetella pertussis in Japan” (2009).

Molecules are shown by their SMILES. In brackets after ≈: the same amount, converted by molar mass.

The term MIC denotes the lowest concentration that inhibits growth of the organism. As to `O=C(N[C@H](CO)[C@H](O)c1ccc([N+](=O)[O-])cc1)C(Cl)Cl` [CHLORAMPHENICOL], the MIC stood at 0.25 µg/mL (≈ 0.774 µM) in assay [1]; 0.25 µg/mL (≈ 0.774 µM) in assay [2]; 0.25 µg/mL (≈ 0.774 µM) in assay [3]; 0.5 µg/mL (≈ 1.55 µM) in [4]; 0.25 µg/mL (≈ 0.774 µM) in assay [5]; 0.25 µg/mL (≈ 0.774 µM) in [6]. Further, the minimum inhibitory concentration (MIC) worked out at 0.25 µg/mL (≈ 0.774 µM) in assay [7]; 0.25 µg/mL (≈ 0.774 µM) in [8]; 0.5 µg/mL (≈ 1.55 µM) in assay [9]; 0.125 µg/mL (≈ 0.387 µM) in assay [10]; 0.5 µg/mL (≈ 1.55 µM) in [11]; 0.25 µg/mL (≈ 0.774 µM) in assay [12]. Further, the minimal inhibitory concentration (MIC) came to 0.5 µg/mL (≈ 1.55 µM) in [13], 0.25 µg/mL (≈ 0.774 µM) in assay [14] and 0.5 µg/mL (≈ 1.55 µM) in assay [15].
On to `O=C(O)c1cn(C2CC2)c2cc(N3CCNCC3)c(F)cc2c1=O` [CIPROFLOXACIN], for which the minimum inhibitory concentration (MIC) in assay [1] came to 0.125 µg/mL (≈ 0.377 µM); in [2], 0.016 µg/mL (≈ 0.0483 µM); in [3], 0.008 µg/mL (≈ 0.0241 µM); in assay [4], 0.016 µg/mL (≈ 0.0483 µM); in [5], 0.125 µg/mL (≈ 0.377 µM); in [6], 0.125 µg/mL (≈ 0.377 µM). The minimum inhibitory concentration (MIC) in assay [7] stood at 0.016 µg/mL (≈ 0.0483 µM); in [8] it was 0.125 µg/mL (≈ 0.377 µM); in [9], 0.125 µg/mL (≈ 0.377 µM); in assay [10] it was 0.008 µg/mL (≈ 0.0241 µM); in assay [11], 0.008 µg/mL (≈ 0.0241 µM); in assay [12], 0.008 µg/mL (≈ 0.0241 µM). In addition, the MIC in [13] is 0.032 µg/mL (≈ 0.0966 µM); in assay [14] it was 0.016 µg/mL (≈ 0.0483 µM); in assay [15], 0.125 µg/mL (≈ 0.377 µM).
With `COc1c(N2CCNC(C)C2)c(F)cc2c(=O)c(C(=O)O)cn(C3CC3)c12` (stereo not drawn) [GATIFLOXACIN], the minimum inhibitory concentration (MIC) in [1] came out at 0.032 µg/mL (≈ 0.0852 µM); in [2], 0.008 µg/mL (≈ 0.0213 µM); in assay [3], 0.004 µg/mL (≈ 0.0107 µM); in assay [4] it was 0.008 µg/mL (≈ 0.0213 µM); in [5] it was 0.032 µg/mL (≈ 0.0852 µM); in [6], 0.032 µg/mL (≈ 0.0852 µM). The minimal inhibitory concentration (MIC) turned out to be 0.008 µg/mL (≈ 0.0213 µM) in [7]; 0.032 µg/mL (≈ 0.0852 µM) in assay [8]; 0.032 µg/mL (≈ 0.0852 µM) in [9]; 0.004 µg/mL (≈ 0.0107 µM) in assay [10]; 0.004 µg/mL (≈ 0.0107 µM) in [11]; 0.004 µg/mL (≈ 0.0107 µM) in assay [12]. In addition, the minimal inhibitory concentration (MIC) in assay [13] came out at 0.008 µg/mL (≈ 0.0213 µM); in assay [14], 0.008 µg/mL (≈ 0.0213 µM); in assay [15] it was 0.032 µg/mL (≈ 0.0852 µM).
On to `C[C@H]1COc2c(N3CCN(C)CC3)c(F)cc3c(=O)c(C(=O)O)cn1c23.C[C@H]1COc2c(N3CCN(C)CC3)c(F)cc3c(=O)c(C(=O)O)cn1c23.O` [LEVOFLOXACIN], for which the MIC in assay [1] was determined as 0.064 µg/mL; in assay [2] it was 0.016 µg/mL; in [3], 0.008 µg/mL; in assay [4], 0.008 µg/mL; in assay [5], 0.064 µg/mL; in assay [6], 0.064 µg/mL. In addition, the MIC stood at 0.008 µg/mL in assay [7]; 0.064 µg/mL in assay [8]; 0.064 µg/mL in [9]; 0.004 µg/mL in [10]; 0.008 µg/mL in [11]; 0.008 µg/mL in assay [12]. Further, the MIC in assay [13] is 0.016 µg/mL; in assay [14], 0.016 µg/mL; in assay [15], 0.064 µg/mL.
For the compound `CCn1cc(C(=O)O)c(=O)c2ccc(C)nc21` [NALIDIXIC ACID], the MIC is more than 256 µg/mL in assay [1]; 2 µg/mL (≈ 8.61 µM) in assay [2]; 64 µg/mL in assay [16]; 0.25 µg/mL in assay [17]; 32 µg/mL in [18]; 1 µg/mL (≈ 4.31 µM) in assay [3]. Further, the MIC is 32 µg/mL in [19]; 64 µg/mL in assay [20]; 0.25 µg/mL in assay [21]; 1 µg/mL (≈ 4.31 µM) in assay [4]; more than 256 µg/mL in assay [5]; 64 µg/mL in [22]. In addition, the MIC in assay [6] was more than 256 µg/mL; in assay [7] it was 2 µg/mL (≈ 8.61 µM); in assay [8], more than 256 µg/mL; in [9] it was more than 256 µg/mL; in assay [10], 2 µg/mL (≈ 8.61 µM); in assay [11], 2 µg/mL (≈ 8.61 µM). Besides, the MIC in assay [12] was 1 µg/mL (≈ 4.31 µM); in [13], 2 µg/mL (≈ 8.61 µM); in [23], 32 µg/mL; in [14] it was 1 µg/mL (≈ 4.31 µM); in assay [15] it was more than 256 µg/mL.
`CCn1cc(C(=O)O)c(=O)c2cc(F)c(N3CCNCC3)cc21` [NORFLOXACIN]: the minimal inhibitory concentration (MIC) came out at 0.5 µg/mL (≈ 1.57 µM) in assay [1]; 0.032 µg/mL (≈ 0.1 µM) in assay [2]; 0.064 µg/mL (≈ 0.2 µM) in [3]; 0.064 µg/mL (≈ 0.2 µM) in assay [4]; 1 µg/mL (≈ 3.13 µM) in [5]; 1 µg/mL (≈ 3.13 µM) in assay [6]. Also, the MIC in [7] was 0.064 µg/mL (≈ 0.2 µM); in [8] it was 1 µg/mL (≈ 3.13 µM); in assay [9] it was 0.5 µg/mL (≈ 1.57 µM); in [10], 0.064 µg/mL (≈ 0.2 µM); in assay [11] it was 0.064 µg/mL (≈ 0.2 µM); in assay [12], 0.064 µg/mL (≈ 0.2 µM). Also, the minimum inhibitory concentration (MIC) in assay [13] came out at 0.125 µg/mL (≈ 0.391 µM); in [14] it was 0.064 µg/mL (≈ 0.2 µM); in assay [15], 1 µg/mL (≈ 3.13 µM).
Take `C[C@@H]1CN(c2c(F)c(N)c3c(=O)c(C(=O)O)cn(C4CC4)c3c2F)C[C@H](C)N1` [SPARFLOXACIN]: the MIC was determined as 0.064 µg/mL (≈ 0.163 µM) in assay [1]; 0.008 µg/mL (≈ 0.0204 µM) in [2]; 0.004 µg/mL (≈ 0.0102 µM) in assay [3]; 0.004 µg/mL (≈ 0.0102 µM) in assay [4]; 0.032 µg/mL (≈ 0.0815 µM) in assay [5]; 0.064 µg/mL (≈ 0.163 µM) in assay [6]. The minimum inhibitory concentration (MIC) is 0.008 µg/mL (≈ 0.0204 µM) in assay [7]; 0.064 µg/mL (≈ 0.163 µM) in assay [8]; 0.064 µg/mL (≈ 0.163 µM) in assay [9]; 0.004 µg/mL (≈ 0.0102 µM) in assay [10]; 0.004 µg/mL (≈ 0.0102 µM) in [11]; 0.004 µg/mL (≈ 0.0102 µM) in assay [12]. Further, the MIC in assay [13] turned out to be 0.016 µg/mL (≈ 0.0408 µM); in [14] it was 0.008 µg/mL (≈ 0.0204 µM); in assay [15], 0.125 µg/mL (≈ 0.319 µM).
